Assay results as given in article PMC11650766 (ACS Infectious Diseases, 2024).

Legend:
Assay in all cases: iSPP stabilization in E. coli K12 lysate at […], LC-MS/MS
Format in all cases: cell-based
[1] = target: RpoB (RNA polymerase β-subunit) (Escherichia coli, UniProt P0A8V2)
PBP1a (MrcA) = target: T1, PBP1a (MrcA) (Escherichia coli, UniProt P02918)
T1 sequence (P02918 1-850): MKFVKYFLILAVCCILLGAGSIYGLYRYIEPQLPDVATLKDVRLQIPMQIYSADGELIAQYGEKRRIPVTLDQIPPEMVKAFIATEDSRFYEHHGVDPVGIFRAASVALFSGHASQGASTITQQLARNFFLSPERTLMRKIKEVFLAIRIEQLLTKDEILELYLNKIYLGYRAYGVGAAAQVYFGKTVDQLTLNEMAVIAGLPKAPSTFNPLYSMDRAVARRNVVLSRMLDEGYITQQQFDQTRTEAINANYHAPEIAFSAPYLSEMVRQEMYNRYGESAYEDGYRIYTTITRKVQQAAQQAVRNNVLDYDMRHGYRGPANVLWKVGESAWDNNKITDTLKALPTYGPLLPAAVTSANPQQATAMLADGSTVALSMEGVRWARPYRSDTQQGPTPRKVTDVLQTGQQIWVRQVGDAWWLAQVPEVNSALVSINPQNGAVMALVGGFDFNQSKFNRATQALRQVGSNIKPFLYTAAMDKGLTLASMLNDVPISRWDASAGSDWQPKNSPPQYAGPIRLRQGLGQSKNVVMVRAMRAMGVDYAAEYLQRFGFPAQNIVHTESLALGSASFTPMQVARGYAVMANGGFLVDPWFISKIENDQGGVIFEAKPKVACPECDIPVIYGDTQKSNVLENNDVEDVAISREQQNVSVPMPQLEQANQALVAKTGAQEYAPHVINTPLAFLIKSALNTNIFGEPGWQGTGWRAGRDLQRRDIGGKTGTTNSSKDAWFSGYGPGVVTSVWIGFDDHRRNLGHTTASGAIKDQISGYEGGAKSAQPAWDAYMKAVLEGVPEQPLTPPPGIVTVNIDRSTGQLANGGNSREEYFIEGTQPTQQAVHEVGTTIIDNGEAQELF

PBP4 (DacB) = PBP4 (DacB) (Escherichia coli, UniProt P24228)
Sequence of PBP4 (DacB) (P24228 21-477): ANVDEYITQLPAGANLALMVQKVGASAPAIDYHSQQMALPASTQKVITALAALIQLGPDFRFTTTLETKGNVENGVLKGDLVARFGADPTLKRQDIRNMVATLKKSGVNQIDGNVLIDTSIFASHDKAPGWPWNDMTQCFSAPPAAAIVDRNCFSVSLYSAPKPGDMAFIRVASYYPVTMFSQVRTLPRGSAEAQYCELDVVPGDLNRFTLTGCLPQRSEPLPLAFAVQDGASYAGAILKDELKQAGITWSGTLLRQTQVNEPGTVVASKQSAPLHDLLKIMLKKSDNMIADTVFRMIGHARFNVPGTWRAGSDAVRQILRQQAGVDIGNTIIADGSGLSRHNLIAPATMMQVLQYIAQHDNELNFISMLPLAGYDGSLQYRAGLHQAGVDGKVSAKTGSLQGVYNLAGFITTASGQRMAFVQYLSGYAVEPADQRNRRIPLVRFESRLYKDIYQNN

Sequence of RpoB (RNA polymerase β-subunit) (P0A8V2 whole entry): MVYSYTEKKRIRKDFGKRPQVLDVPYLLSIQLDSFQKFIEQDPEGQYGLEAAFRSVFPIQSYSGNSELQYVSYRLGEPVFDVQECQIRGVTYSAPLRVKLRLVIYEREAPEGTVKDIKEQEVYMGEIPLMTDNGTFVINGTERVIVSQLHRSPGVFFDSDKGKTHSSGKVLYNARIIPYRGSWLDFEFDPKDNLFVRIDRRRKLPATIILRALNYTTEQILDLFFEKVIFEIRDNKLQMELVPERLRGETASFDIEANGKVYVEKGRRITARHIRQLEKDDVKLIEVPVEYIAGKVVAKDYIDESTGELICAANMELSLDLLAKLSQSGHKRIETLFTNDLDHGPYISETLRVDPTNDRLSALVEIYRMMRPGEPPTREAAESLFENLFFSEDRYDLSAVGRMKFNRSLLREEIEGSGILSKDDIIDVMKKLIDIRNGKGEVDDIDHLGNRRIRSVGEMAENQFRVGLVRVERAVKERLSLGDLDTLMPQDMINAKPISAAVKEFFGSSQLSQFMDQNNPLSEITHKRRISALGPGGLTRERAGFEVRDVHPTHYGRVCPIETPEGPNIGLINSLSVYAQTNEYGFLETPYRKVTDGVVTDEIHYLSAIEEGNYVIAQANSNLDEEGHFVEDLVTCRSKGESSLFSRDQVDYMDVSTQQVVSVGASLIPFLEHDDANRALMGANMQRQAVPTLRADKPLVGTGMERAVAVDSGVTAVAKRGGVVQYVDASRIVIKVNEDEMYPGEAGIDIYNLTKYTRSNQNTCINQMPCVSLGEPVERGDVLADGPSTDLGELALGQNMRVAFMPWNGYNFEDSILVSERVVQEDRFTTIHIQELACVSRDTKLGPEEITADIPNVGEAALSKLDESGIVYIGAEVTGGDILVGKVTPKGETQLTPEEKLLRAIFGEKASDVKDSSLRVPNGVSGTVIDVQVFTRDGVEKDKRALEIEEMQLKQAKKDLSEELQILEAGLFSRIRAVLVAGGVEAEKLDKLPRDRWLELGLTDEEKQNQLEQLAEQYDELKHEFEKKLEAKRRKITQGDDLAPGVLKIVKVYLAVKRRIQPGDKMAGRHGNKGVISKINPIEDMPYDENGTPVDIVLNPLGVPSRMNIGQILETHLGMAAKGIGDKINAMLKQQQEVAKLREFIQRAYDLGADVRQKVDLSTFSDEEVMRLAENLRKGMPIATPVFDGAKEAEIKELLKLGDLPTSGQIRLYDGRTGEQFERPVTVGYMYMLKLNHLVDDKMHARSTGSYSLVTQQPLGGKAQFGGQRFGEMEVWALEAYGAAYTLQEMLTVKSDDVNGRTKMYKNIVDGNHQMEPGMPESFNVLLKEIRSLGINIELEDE
Sequence of RpoB (RNA polymerase β-subunit) (P0A8T7 whole entry partner): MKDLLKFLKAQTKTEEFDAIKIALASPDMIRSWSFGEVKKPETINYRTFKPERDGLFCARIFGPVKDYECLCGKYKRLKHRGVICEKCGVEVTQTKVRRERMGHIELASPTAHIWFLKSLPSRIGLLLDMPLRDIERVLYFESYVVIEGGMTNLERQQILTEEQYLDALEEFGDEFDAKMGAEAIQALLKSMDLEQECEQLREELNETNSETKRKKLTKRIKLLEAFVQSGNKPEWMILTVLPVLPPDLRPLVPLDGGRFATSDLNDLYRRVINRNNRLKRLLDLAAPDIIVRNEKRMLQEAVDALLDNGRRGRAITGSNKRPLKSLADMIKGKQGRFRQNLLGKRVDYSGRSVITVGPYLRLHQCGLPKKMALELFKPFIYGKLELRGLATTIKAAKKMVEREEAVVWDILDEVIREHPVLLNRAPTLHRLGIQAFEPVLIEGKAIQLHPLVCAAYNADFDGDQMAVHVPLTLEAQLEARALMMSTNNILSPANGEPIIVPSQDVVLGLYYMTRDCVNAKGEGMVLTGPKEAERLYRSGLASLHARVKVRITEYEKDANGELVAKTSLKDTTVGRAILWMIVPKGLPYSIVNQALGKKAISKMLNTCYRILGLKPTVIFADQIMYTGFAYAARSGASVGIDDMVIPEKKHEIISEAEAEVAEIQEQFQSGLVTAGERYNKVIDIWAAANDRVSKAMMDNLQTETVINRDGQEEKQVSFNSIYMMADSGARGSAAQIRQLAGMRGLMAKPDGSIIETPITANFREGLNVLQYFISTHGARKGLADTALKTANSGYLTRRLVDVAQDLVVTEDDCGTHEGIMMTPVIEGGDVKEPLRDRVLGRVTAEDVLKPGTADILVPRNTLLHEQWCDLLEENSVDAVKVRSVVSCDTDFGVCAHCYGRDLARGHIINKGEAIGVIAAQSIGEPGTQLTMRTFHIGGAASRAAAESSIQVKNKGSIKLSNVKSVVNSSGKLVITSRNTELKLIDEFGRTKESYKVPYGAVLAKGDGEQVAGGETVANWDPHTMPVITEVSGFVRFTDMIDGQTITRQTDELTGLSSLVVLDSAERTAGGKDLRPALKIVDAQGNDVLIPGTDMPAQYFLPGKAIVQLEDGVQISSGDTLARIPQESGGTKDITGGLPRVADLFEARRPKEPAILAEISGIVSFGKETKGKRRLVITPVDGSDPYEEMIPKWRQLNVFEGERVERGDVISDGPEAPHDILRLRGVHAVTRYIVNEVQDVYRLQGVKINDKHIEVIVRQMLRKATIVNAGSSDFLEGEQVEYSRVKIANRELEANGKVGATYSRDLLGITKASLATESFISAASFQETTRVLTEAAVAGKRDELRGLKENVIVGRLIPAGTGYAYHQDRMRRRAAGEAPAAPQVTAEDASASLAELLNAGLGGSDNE
Sequence of RpoB (RNA polymerase β-subunit) (P0A7Z4 whole entry partner): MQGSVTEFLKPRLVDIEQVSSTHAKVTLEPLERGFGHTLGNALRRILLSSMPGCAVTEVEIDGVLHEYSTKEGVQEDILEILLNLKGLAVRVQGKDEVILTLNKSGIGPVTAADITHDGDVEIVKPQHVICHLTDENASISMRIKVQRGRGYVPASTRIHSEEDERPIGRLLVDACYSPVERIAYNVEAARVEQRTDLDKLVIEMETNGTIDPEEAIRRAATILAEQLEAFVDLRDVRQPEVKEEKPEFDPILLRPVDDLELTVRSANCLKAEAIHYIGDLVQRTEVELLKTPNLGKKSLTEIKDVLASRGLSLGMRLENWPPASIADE

CO[C@H]1/C=C/O[C@@]2(C)Oc3c(C)c(O)c4c(O)c(c(/C=N/N5CCN(C)CC5)c(O)c4c3C2=O)NC(=O)/C(C)=C\C=C\[C@H](C)[C@H](O)[C@@H](C)[C@@H](O)[C@@H](C)[C@H](OC(C)=O)[C@@H]1C [rifampicin]
iSPP stabilization in E. coli K12 lysate at 10 μM, LC-MS/MS [1]: for rifampicin, we observed (Figure 2A) the stabilization of other subunits within the RNAP complex in addition to the primary target RpoB

CC1(C)S[C@@H]2[C@H](NC(=O)[C@H](N)c3ccccc3)C(=O)N2[C@H]1C(=O)O [ampicillin]
iSPP stabilization in E. coli K12 lysate at 10 μM, LC-MS/MS (PBP1a (MrcA)): Ampicillin led to a significant stabilization of PBP1a (MrcA) and PBP4 (DacB), the two top hits
iSPP stabilization in E. coli K12 lysate at 10 μM, LC-MS/MS (PBP4 (DacB)): Ampicillin led to a significant stabilization of PBP1a (MrcA) and PBP4 (DacB), the two top hits
